Reference: ChEMBL document CHEMBL4354803, “Synthesis and biological activity of structurally diverse phthalazine derivatives: A systematic review” (Bioorg Med Chem, 2019)
One block for each compound: values may come before it.

Experiments:
[1] = molecular target: Aldo-keto reductase family 1 member B1 (Homo sapiens, UniProt P15121); test: Inhibition of human Aldose reductase
[2] = Inhibition of human HeLa cell derived PARP preincubated for 10 mins followed by NAD and double stranded DNA-oligos addition and measured after 45 mins by scintillation counting; type: cell-based
HepG2 [3] = test: cells; conditions: Homo sapiens, HepG2, 24 h
Description: Cytotoxicity against human HepG2 cells after 24 hrs by MTT assay

MCF7 = test: cells; conditions: Homo sapiens, MCF7, 24 h
Description: Cytotoxicity against human MCF7 cells after 24 hrs by MTT assay

Mus musculus [4] = test: Potency index, ratio of valproate ED50 to compound ED50 for Anticonvulsant activity in ip dosed ICR mouse assessed as protection against 50 mA current-induced seizure pretreated for 30 mins followed by seizure induction measured for 60 mins by maximal electroshock seizure test; type: functional
Mus musculus [5] = species: Mus musculus; test: animal or person; conditions: ICR, ip
Rattus norvegicus = test: In vivo inhibition of Aldose reductase in streptozotocin-induced po dosed rat model of diabetes assessed as reduction in sorbitol accumulation in sciatic nerve administered at 4,7,24 hrs and measured at 27 hrs; type: functional
[6] = Inhibition of recombinant human PARP expressed in Escherichia coli in presence of NAD+ by microplate scintillation counting method
[7] = Inhibition of PARP in human C41 cells assessed as reduction in protein accumulation preincubated for 30 mins followed by H2O2 addition and measured after 10 mins by FITC/DAPI-staining based fluorescence method; type: cell-based
Mus musculus [8] = test: Antinociceptive activity in Balb/c mouse at 20 mg/kg, ip after 120 mins by tail flick test relative to control; type: functional
Aurora kinase A = molecular target: T1, Aurora kinase A (Homo sapiens, UniProt O14965); test: Inhibition of C-terminal His4-tagged Aurora A (unknown origin) using PKB-GSK2 biotinylated peptide as substrate incubated for 90 mins by ELISA
T1 sequence (O14965 whole entry): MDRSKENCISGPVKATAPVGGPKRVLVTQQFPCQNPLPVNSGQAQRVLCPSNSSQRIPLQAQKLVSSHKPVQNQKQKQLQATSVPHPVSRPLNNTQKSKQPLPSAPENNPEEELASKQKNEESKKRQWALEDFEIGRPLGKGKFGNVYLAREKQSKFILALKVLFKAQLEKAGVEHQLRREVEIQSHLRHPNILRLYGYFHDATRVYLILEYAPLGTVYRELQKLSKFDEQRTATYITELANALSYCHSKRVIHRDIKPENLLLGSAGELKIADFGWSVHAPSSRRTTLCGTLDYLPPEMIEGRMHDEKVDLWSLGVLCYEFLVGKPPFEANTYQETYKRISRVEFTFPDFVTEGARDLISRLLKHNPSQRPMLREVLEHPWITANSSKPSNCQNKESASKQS

HCT-116 = test: Antiproliferative activity against human HCT116 cells after 5 days by CellTiter-Glo Luminescent Cell Viability Assay; type: functional, cell-based; conditions: HCT-116, 120 h
Prostaglandin E synthase = molecular target: T2, Prostaglandin E synthase (Homo sapiens, UniProt O14684); test: Inhibition of mPGES-1 in human A549 cells assessed as reduction in […] induced PGE2 release preincubated for 30 mins followed by […] addition and measured after 16 to 20 hrs by HTRF assay; type: cell-based
T2 sequence (O14684 whole entry): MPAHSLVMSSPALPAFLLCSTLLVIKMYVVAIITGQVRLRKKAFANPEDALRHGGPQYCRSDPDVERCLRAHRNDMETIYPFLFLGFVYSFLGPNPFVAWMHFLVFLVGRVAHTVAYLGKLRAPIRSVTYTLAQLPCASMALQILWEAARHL

[9] = molecular target: T3, Poly [ADP-ribose] polymerase 1 (Homo sapiens, UniProt P09874); test: Inhibition of human PARP1 expressed in Escherichia coli using histone as substrate by ELISA
[10] = molecular target: T3, Poly [ADP-ribose] polymerase 1; test: Inhibition of N-terminal GST-tagged human PARP1 expressed in a Baculovirus infected Sf9 insect cells using biotinylated substrate incubated for 1 hr by colorimetric method
Mus musculus [11] = test: Antinociceptive activity in Balb/c mouse at 20 mg/kg, ip after 180 mins by tail flick test relative to control; type: functional
PC-3 = test: Cytotoxicity against human PC3 cells after 24 hrs by MTT assay; type: functional, cell-based; conditions: PC-3, 24 h
MDA-MB-468 = test: Growth inhibition of human MDA-MB-468 cells after 7 days by CCK-8 method; type: functional, cell-based; conditions: MDA-MB-468, 168 h
CAPAN-1 = test: Growth inhibition of human Capan1 cells after 7 days by CCK-8 method; type: functional, cell-based; conditions: CAPAN-1, 168 h
HepG2 [12] = test: Cytotoxicity against human HepG2 cells incubated for 48 hrs by sulforhodamine B staining based ELISA; type: functional, cell-based; conditions: HepG2, 48 h
HepG2 [13] = test: Potency index, ratio of sorafenib IC50 to compound IC50 for cytotoxicity against human HepG2 cells by sulforhodamine B assay; type: functional
HepG2 [14] = test: Potency index, ratio of doxorubicin IC50 to compound IC50 for cytotoxicity against human HepG2 cells by sulforhodamine B assay; type: functional
[15] = molecular target: T4, NAD-dependent protein deacetylase sirtuin-1 (Homo sapiens) (UniProt Q96EB6); test: Modulation of SIRT1 (unknown origin) expressed in Escherichia coli BL21(DE3) cells using Ac-EE-K(biotin)-GQSTSSHSK(Ac)NleSTEG-K(5TMR)-EE-NH2 as substrate after 25 mins by mass spectrometry
T4 sequence (whole entry): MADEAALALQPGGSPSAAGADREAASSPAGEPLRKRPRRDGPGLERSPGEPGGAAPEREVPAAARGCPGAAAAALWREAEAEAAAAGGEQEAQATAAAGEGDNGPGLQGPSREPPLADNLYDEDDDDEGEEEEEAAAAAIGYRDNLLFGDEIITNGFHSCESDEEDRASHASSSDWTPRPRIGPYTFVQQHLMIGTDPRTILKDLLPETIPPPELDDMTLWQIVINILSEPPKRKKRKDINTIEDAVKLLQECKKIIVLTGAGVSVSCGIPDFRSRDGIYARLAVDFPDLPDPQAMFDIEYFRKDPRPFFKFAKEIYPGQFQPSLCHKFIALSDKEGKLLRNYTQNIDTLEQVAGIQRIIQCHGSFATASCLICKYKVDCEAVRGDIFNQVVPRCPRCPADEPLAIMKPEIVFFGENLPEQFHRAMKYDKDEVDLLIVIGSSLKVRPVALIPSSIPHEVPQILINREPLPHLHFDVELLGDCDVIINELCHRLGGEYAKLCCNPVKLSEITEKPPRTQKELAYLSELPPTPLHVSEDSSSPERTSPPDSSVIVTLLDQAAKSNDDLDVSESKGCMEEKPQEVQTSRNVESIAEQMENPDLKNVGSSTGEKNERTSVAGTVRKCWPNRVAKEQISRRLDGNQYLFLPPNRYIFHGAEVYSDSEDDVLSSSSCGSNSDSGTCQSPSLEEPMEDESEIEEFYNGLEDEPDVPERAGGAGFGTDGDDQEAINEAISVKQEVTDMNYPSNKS

T3 sequence (P09874 whole entry): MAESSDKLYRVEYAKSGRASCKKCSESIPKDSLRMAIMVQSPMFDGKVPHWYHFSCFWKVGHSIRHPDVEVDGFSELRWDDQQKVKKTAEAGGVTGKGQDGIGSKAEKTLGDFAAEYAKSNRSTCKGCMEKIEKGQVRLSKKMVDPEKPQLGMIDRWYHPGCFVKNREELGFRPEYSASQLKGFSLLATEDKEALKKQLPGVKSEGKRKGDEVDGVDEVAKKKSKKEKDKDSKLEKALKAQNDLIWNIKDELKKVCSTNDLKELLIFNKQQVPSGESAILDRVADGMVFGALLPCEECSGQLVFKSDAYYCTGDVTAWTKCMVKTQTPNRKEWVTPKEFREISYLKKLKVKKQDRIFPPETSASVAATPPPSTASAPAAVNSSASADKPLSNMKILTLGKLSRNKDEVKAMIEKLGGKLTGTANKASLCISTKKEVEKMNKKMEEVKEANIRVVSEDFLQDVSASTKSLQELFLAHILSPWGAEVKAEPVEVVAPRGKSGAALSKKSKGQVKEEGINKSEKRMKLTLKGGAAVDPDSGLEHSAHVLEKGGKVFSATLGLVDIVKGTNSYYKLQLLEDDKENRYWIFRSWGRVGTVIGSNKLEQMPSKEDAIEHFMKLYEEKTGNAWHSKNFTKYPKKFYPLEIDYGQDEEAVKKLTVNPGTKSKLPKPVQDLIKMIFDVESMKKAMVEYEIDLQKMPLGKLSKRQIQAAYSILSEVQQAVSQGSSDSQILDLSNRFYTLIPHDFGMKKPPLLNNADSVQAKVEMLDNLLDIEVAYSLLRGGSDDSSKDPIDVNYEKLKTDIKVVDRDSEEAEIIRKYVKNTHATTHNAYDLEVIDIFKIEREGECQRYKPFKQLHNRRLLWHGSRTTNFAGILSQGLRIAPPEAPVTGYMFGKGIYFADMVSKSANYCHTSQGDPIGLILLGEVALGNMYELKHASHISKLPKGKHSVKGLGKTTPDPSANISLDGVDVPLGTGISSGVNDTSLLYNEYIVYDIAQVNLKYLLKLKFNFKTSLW

Compound: Cc1c(CC(=O)O)nn(Cc2nc3cc(C(F)(F)F)ccc3s2)c(=O)c1C
IC50 [1]: 10 to 16 nM

Compound: COC(=O)CSc1nnc(Cn2[nH]c(=O)c3ccccc3c2=O)o1
Ratio ED50 (Mus musculus [4]): 10
ED50 (Mus musculus [5]): 172 µmol/kg

Compound: CCOC(=O)CSc1nnc(Cn2[nH]c(=O)c3ccccc3c2=O)o1
ED50 (Mus musculus [5]): 193 µmol/kg

Compound: O=C(O)Cc1nn(Cc2nc3cc(Br)ccc3s2)c(=O)c2ccccc12
ED50 (Rattus norvegicus): 3.6 mg/kg

Compound: O=C(c1cc(Cc2n[nH]c(=O)c3ccccc23)ccc1F)N1CCN(c2ncccn2)CC1
IC50 [6]: 0.7 nM
EC50 [7]: 0.7 nM

Compound: CN(C)CCn1nc(-c2ccccc2)c2ccccc2c1=O
MPE (Mus musculus [8]): 39.61%

Compound: CC1C(=O)N(c2cccc(Cc3n[nH]c(=O)c4ccccc34)c2)C(=O)N1CCN1CCCCC1 (configuration not stated)
IC50 [2]: 2.8 nM

Compound: CN(C)CCn1nc(-c2ccncc2)c2ccccc2c1=O
MPE (Mus musculus [8]): 14.84%
MPE (Mus musculus [11]): 18.26%

Compound: CCCC(CCC)C(=O)O [VALPROIC ACID]
ED50 (Mus musculus [5]): 1710 µmol/kg

Compound: CC(=O)CNC(=O)Cn1nc(Cc2ccccc2)c2ccccc2c1=O
IC50 (HepG2 [12]): 10 nM

Compound: O=C(Cn1nc(Cc2ccccc2)c2ccccc2c1=O)Nc1ccccc1Cl
Ratio IC50 (HepG2 [13]): 2.9
Ratio IC50 (HepG2 [14]): 2.9

Second part, led by results:

IC50 [2]: < 20 nM
Compound: O=C(c1cc(Cc2n[nH]c(=O)c3ccccc23)ccc1F)N1CCNCC1

IC50 (HepG2 [3]): 22.2 µM
IC50 (MCF7): 19.8 µM
Compound: O=c1c2ccccc2c(Cc2ccccc2)nn1CC(=S)NNS(=O)(=O)c1ccccc1

IC50 [2]: 57 nM
Compound: O=C(Nc1ccc(-c2cccc(Cc3n[nH]c(=O)c4ccccc34)c2)cc1)C1CC1

IC50 [1]: 2.1 to 52 nM
Compound: O=C(O)Cc1nn(Cc2nc3cc(C(F)(F)F)ccc3s2)c(=O)c2ncccc12

IC50 (Aurora kinase A): 420 nM
IC50 (HCT-116): 7 nM
Compound: Cc1cc(Nc2nn(C(C)C)c(=O)c3cc(OCCN4CCOCC4)ccc23)n[nH]1

IC50 [1]: 3.2 to 5 nM
Compound: Cc1c(CC(=O)O)nn(Cc2nc3cc(F)cc(F)c3s2)c(=O)c1C

IC50 (Prostaglandin E synthase): < 50 nM
Compound: O=C(Nc1ccc2cnn(-c3ccc(Br)cc3)c(=O)c2c1)c1c(F)cccc1Cl

IC50 [9]: 2 nM
Compound: CCN1CCCC2CN(C(=O)c3cc(Cc4n[nH]c(=O)c5ccccc45)ccc3F)CC21 (configuration not stated)

IC50 [10]: 97 nM
Compound: O=C(CCCn1nc(-c2ccccc2)c2ccccc2c1=O)Nc1cccc(Cl)c1

IC50 (HepG2 [3]): 17.4 µM
Compound: O=C(Cn1nc(Cc2ccccc2)c2ccccc2c1=O)NNS(=O)(=O)c1ccccc1
IC50 (PC-3): 19.8 µM

IC50 (MDA-MB-468): 3 pM
Compound: O=C(c1cc(Cc2n[nH]c(=O)c3ccccc23)ccc1F)N1CCn2c(nnc2C(F)F)C1
IC50 (CAPAN-1): 3 pM

IC50 [2]: 3 nM
Compound: CCOC1CCN(C(=O)c2cc(Cc3n[nH]c(=O)c4ccccc34)ccc2F)CC1

EC1.5 [15]: < 5 µM
Compound: O=C(Nc1cccc2cnn(-c3cccc(C(F)(F)F)c3)c(=O)c12)c1cccc(OCC(O)CO)n1 (configuration not stated)
